Laboratory results reported in patent US7015177B2, “Solid formulation” (priority 2001, dated 2006).

Tests used:
[1] = Thermal degradation of agrochemical; assay type: physicochemical
[2] = system: seeds
[3] = Solubility of agrochemical in solvent or melt; assay type: physicochemical; conditions: melt at about 65 to 70° C.

CC1(C)[C@H](C(=O)O[C@H](C#N)c2cccc(Oc3ccccc3)c2)[C@@H]1/C=C(\Cl)C(F)(F)F (racemic) [lambda cyhalothrin]
temperature above which it tends to degrade [1]: > 100 °C

CCCCCCCCCCCCCCCCCC(=O)O [stearic acid]
retardation of germination [2]: no significant retardation of germination

CN1COCN(Cc2cnc(Cl)s2)/C1=N\[N+](=O)[O-] [thiamethoxam]
solubility in melt of polyethylene glycol and methyl oleate [3]: readily soluble
